Measured values as given in ChEMBL document CHEMBL3045245, “Synthesis and antitumor activities of certain novel 2-amino-9-(4-halostyryl)-4H-pyrano[3,2-h]quinoline derivatives” (Med Chem Res, 2012).
≈ marks a conversion by molar mass, not a printed value.

Tested on: HepG2
Assay: Cytotoxicity against Homo sapiens (human) HepG2 cells after 48 hr by MTT assay
Type: functional, cell-based
Conditions: HepG2, 48 h
Work on `CCOC(=O)C1=C(N)Oc2c(ccc3ccc(/C=C/c4ccc(F)cc4)nc23)C1c1ccc(Cl)cc1` (configuration not stated) yielded an IC50 of 47.5 µg/mL (≈ 94.8 µM). Work on `N#CC1=C(N)Oc2c(ccc3ccc(/C=C/c4ccc(Cl)cc4)nc23)C1c1ccc(Cl)cc1` (configuration not stated) yielded an IC50 of 48.2 µg/mL (≈ 102 µM).

Tested on: HepG2
Assay: Cytotoxicity against Homo sapiens (human) HepG2 cells assessed as cell viability at 1.56 ug/ml after 48 hr by MTT assay
Type: functional
Conditions: HepG2, 48 h, read-out: Activity
In the case of `CCOC(=O)C1=C(N)Oc2c(ccc3ccc(/C=C/c4ccc(F)cc4)nc23)C1c1ccc(Cl)cc1` (configuration not stated), the viability at 1.56 µg/mL is reported as 98.9%. `N#CC1=C(N)Oc2c(ccc3ccc(/C=C/c4ccc(Cl)cc4)nc23)C1c1ccc(Cl)cc1` (configuration not stated) showed a viability at 1.56 µg/mL of 95.4%.

Tested on: HepG2
Assay: Cytotoxicity against Homo sapiens (human) HepG2 cells assessed as cell viability at 6.25 ug/ml after 48 hr by MTT assay
Type: functional
Conditions: HepG2, 48 h, read-out: Activity
`CCOC(=O)C1=C(N)Oc2c(ccc3ccc(/C=C/c4ccc(F)cc4)nc23)C1c1ccc(Cl)cc1` (configuration not stated) showed a viability at 6.25 µg/mL of 85.1%. Compound `N#CC1=C(N)Oc2c(ccc3ccc(/C=C/c4ccc(Cl)cc4)nc23)C1c1ccc(Cl)cc1` (configuration not stated) has a viability at 6.25 µg/mL of 79.2%.

Tested on: HepG2
Assay: Cytotoxicity against Homo sapiens (human) HepG2 cells assessed as cell viability at 3.125 ug/ml after 48 hr by MTT assay
Type: functional
Conditions: HepG2, 48 h, read-out: Activity
Work on `CCOC(=O)C1=C(N)Oc2c(ccc3ccc(/C=C/c4ccc(F)cc4)nc23)C1c1ccc(Cl)cc1` (configuration not stated) yielded a viability at 3.125 µg/mL of 96.4%. With `N#CC1=C(N)Oc2c(ccc3ccc(/C=C/c4ccc(Cl)cc4)nc23)C1c1ccc(Cl)cc1` (configuration not stated) the viability at 3.125 µg/mL was 85.8%.

Tested on: HepG2
Assay: Cytotoxicity against Homo sapiens (human) HepG2 cells assessed as cell viability at 25 ug/ml after 48 hr by MTT assay
Type: functional
Conditions: HepG2, 48 h, read-out: Activity
In the case of `CCOC(=O)C1=C(N)Oc2c(ccc3ccc(/C=C/c4ccc(F)cc4)nc23)C1c1ccc(Cl)cc1` (configuration not stated), the viability at 25 µg/mL is reported as 69%. `N#CC1=C(N)Oc2c(ccc3ccc(/C=C/c4ccc(Cl)cc4)nc23)C1c1ccc(Cl)cc1` (configuration not stated) showed a viability at 25 µg/mL of 68.2%.

Tested on: HepG2
Assay: Cytotoxicity against Homo sapiens (human) HepG2 cells assessed as cell viability at 12.5 ug/ml after 48 hr by MTT assay
Type: functional
Conditions: HepG2, 48 h, read-out: Activity
`CCOC(=O)C1=C(N)Oc2c(ccc3ccc(/C=C/c4ccc(F)cc4)nc23)C1c1ccc(Cl)cc1` (configuration not stated) gave a viability at 12.5 µg/mL of 79.4%. Work on `N#CC1=C(N)Oc2c(ccc3ccc(/C=C/c4ccc(Cl)cc4)nc23)C1c1ccc(Cl)cc1` (configuration not stated) yielded a viability at 12.5 µg/mL of 74%.

Tested on: not listed separately
Assay: Cytotoxicity against Homo sapiens (human) HCT cells after 48 hr by MTT assay
Type: functional, cell-based
Conditions: not given
`CCOC(=O)C1=C(N)Oc2c(ccc3ccc(/C=C/c4ccc(F)cc4)nc23)C1c1ccc(Cl)cc1` (configuration not stated) showed an IC50 of 26.2 µg/mL (≈ 52.3 µM). With `N#CC1=C(N)Oc2c(ccc3ccc(/C=C/c4ccc(Cl)cc4)nc23)C1c1ccc(Cl)cc1` (configuration not stated) the IC50 was 4.8 µg/mL (≈ 10.2 µM).

Tested on: HepG2
Assay: Cytotoxicity against Homo sapiens (human) HepG2 cells assessed as cell viability at 50 ug/ml after 48 hr by MTT assay
Type: functional
Conditions: HepG2, 48 h, read-out: Activity
Work on `CCOC(=O)C1=C(N)Oc2c(ccc3ccc(/C=C/c4ccc(F)cc4)nc23)C1c1ccc(Cl)cc1` (configuration not stated) yielded a viability at 50 µg/mL of 45.2%. For `N#CC1=C(N)Oc2c(ccc3ccc(/C=C/c4ccc(Cl)cc4)nc23)C1c1ccc(Cl)cc1` (configuration not stated), the viability at 50 µg/mL was 48.4%.

Tested on: not listed separately
Assay: Cytotoxicity against Homo sapiens (human) HCT cells assessed as cell viability at 1.56 ug/ml after 48 hr by MTT assay
Type: functional
Conditions: read-out: Activity
`CCOC(=O)C1=C(N)Oc2c(ccc3ccc(/C=C/c4ccc(F)cc4)nc23)C1c1ccc(Cl)cc1` (configuration not stated) showed a viability at 1.56 µg/mL of 98.9%. For `N#CC1=C(N)Oc2c(ccc3ccc(/C=C/c4ccc(Cl)cc4)nc23)C1c1ccc(Cl)cc1` (configuration not stated), the viability at 1.56 µg/mL was 69.1%.

Tested on: not listed separately
Assay: Cytotoxicity against Homo sapiens (human) HCT cells assessed as cell viability at 3.125 ug/ml after 48 hr by MTT assay
Type: functional
Conditions: read-out: Activity
Work on `CCOC(=O)C1=C(N)Oc2c(ccc3ccc(/C=C/c4ccc(F)cc4)nc23)C1c1ccc(Cl)cc1` (configuration not stated) yielded a viability at 3.125 µg/mL of 80.6%. With `N#CC1=C(N)Oc2c(ccc3ccc(/C=C/c4ccc(Cl)cc4)nc23)C1c1ccc(Cl)cc1` (configuration not stated) the viability at 3.125 µg/mL was 59%.

Tested on: not listed separately
Assay: Cytotoxicity against Homo sapiens (human) HCT cells assessed as cell viability at 6.25 ug/ml after 48 hr by MTT assay
Type: functional
Conditions: read-out: Activity
Compound `CCOC(=O)C1=C(N)Oc2c(ccc3ccc(/C=C/c4ccc(F)cc4)nc23)C1c1ccc(Cl)cc1` (configuration not stated) has a viability at 6.25 µg/mL of 73.1%. With `N#CC1=C(N)Oc2c(ccc3ccc(/C=C/c4ccc(Cl)cc4)nc23)C1c1ccc(Cl)cc1` (configuration not stated) the viability at 6.25 µg/mL was 42.6%.

Tested on: not listed separately
Assay: Cytotoxicity against Homo sapiens (human) HCT cells assessed as cell viability at 12.5 ug/ml after 48 hr by MTT assay
Type: functional
Conditions: read-out: Activity
`CCOC(=O)C1=C(N)Oc2c(ccc3ccc(/C=C/c4ccc(F)cc4)nc23)C1c1ccc(Cl)cc1` (configuration not stated) showed a viability at 12.5 µg/mL of 69.5%. With `N#CC1=C(N)Oc2c(ccc3ccc(/C=C/c4ccc(Cl)cc4)nc23)C1c1ccc(Cl)cc1` (configuration not stated) the viability at 12.5 µg/mL was 33.8%.

Tested on: not listed separately
Assay: Cytotoxicity against Homo sapiens (human) HCT cells assessed as cell viability at 25 ug/ml after 48 hr by MTT assay
Type: functional
Conditions: read-out: Activity
For `CCOC(=O)C1=C(N)Oc2c(ccc3ccc(/C=C/c4ccc(F)cc4)nc23)C1c1ccc(Cl)cc1` (configuration not stated), the viability at 25 µg/mL was 51.3%. `N#CC1=C(N)Oc2c(ccc3ccc(/C=C/c4ccc(Cl)cc4)nc23)C1c1ccc(Cl)cc1` (configuration not stated) showed a viability at 25 µg/mL of 29%.

Tested on: not listed separately
Assay: Cytotoxicity against Homo sapiens (human) HCT cells assessed as cell viability at 50 ug/ml after 48 hr by MTT assay
Type: functional
Conditions: read-out: Activity
In the case of `CCOC(=O)C1=C(N)Oc2c(ccc3ccc(/C=C/c4ccc(F)cc4)nc23)C1c1ccc(Cl)cc1` (configuration not stated), the viability at 50 µg/mL is reported as 19.8%. `N#CC1=C(N)Oc2c(ccc3ccc(/C=C/c4ccc(Cl)cc4)nc23)C1c1ccc(Cl)cc1` (configuration not stated) showed a viability at 50 µg/mL of 24.7%.

Tested on: MCF7
Assay: Cytotoxicity against Homo sapiens (human) MCF7 cells after 48 hr by MTT assay
Type: functional, cell-based
Conditions: MCF7, 48 h
Work on `CCOC(=O)C1=C(N)Oc2c(ccc3ccc(/C=C/c4ccc(F)cc4)nc23)C1c1ccc(Cl)cc1` (configuration not stated) yielded an IC50 of 37.9 µg/mL (≈ 75.7 µM). In the case of `N#CC1=C(N)Oc2c(ccc3ccc(/C=C/c4ccc(Cl)cc4)nc23)C1c1ccc(Cl)cc1` (configuration not stated), the IC50 is reported as 5.6 µg/mL (≈ 11.9 µM).

Tested on: MCF7
Assay: Cytotoxicity against Homo sapiens (human) MCF7 cells assessed as cell viability at 1.56 ug/ml after 48 hr by MTT assay
Type: functional
Conditions: MCF7, 48 h, read-out: Activity
`CCOC(=O)C1=C(N)Oc2c(ccc3ccc(/C=C/c4ccc(F)cc4)nc23)C1c1ccc(Cl)cc1` (configuration not stated) gave a viability at 1.56 µg/mL of 98.5%. `N#CC1=C(N)Oc2c(ccc3ccc(/C=C/c4ccc(Cl)cc4)nc23)C1c1ccc(Cl)cc1` (configuration not stated) showed a viability at 1.56 µg/mL of 86.6%.

Tested on: MCF7
Assay: Cytotoxicity against Homo sapiens (human) MCF7 cells assessed as cell viability at 3.125 ug/ml after 48 hr by MTT assay
Type: functional
Conditions: MCF7, 48 h, read-out: Activity
`CCOC(=O)C1=C(N)Oc2c(ccc3ccc(/C=C/c4ccc(F)cc4)nc23)C1c1ccc(Cl)cc1` (configuration not stated) gave a viability at 3.125 µg/mL of 92.1%. With `N#CC1=C(N)Oc2c(ccc3ccc(/C=C/c4ccc(Cl)cc4)nc23)C1c1ccc(Cl)cc1` (configuration not stated) the viability at 3.125 µg/mL was 61.9%.

Tested on: MCF7
Assay: Cytotoxicity against Homo sapiens (human) MCF7 cells assessed as cell viability at 6.25 ug/ml after 48 hr by MTT assay
Type: functional
Conditions: MCF7, 48 h, read-out: Activity
For `CCOC(=O)C1=C(N)Oc2c(ccc3ccc(/C=C/c4ccc(F)cc4)nc23)C1c1ccc(Cl)cc1` (configuration not stated), the viability at 6.25 µg/mL was 84.7%. For `N#CC1=C(N)Oc2c(ccc3ccc(/C=C/c4ccc(Cl)cc4)nc23)C1c1ccc(Cl)cc1` (configuration not stated), the viability at 6.25 µg/mL was 45.4%.

Tested on: MCF7
Assay: Cytotoxicity against Homo sapiens (human) MCF7 cells assessed as cell viability at 12.5 ug/ml after 48 hr by MTT assay
Type: functional
Conditions: MCF7, 48 h, read-out: Activity
`CCOC(=O)C1=C(N)Oc2c(ccc3ccc(/C=C/c4ccc(F)cc4)nc23)C1c1ccc(Cl)cc1` (configuration not stated) showed a viability at 12.5 µg/mL of 73.5%. Work on `N#CC1=C(N)Oc2c(ccc3ccc(/C=C/c4ccc(Cl)cc4)nc23)C1c1ccc(Cl)cc1` (configuration not stated) yielded a viability at 12.5 µg/mL of 39.7%.

Tested on: MCF7
Assay: Cytotoxicity against Homo sapiens (human) MCF7 cells assessed as cell viability at 25 ug/ml after 48 hr by MTT assay
Type: functional
Conditions: MCF7, 48 h, read-out: Activity
`CCOC(=O)C1=C(N)Oc2c(ccc3ccc(/C=C/c4ccc(F)cc4)nc23)C1c1ccc(Cl)cc1` (configuration not stated) gave a viability at 25 µg/mL of 61.2%. `N#CC1=C(N)Oc2c(ccc3ccc(/C=C/c4ccc(Cl)cc4)nc23)C1c1ccc(Cl)cc1` (configuration not stated) gave a viability at 25 µg/mL of 33.8%.

Tested on: MCF7
Assay: Cytotoxicity against Homo sapiens (human) MCF7 cells assessed as cell viability at 50 ug/ml after 48 hr by MTT assay
Type: functional
Conditions: MCF7, 48 h, read-out: Activity
For `CCOC(=O)C1=C(N)Oc2c(ccc3ccc(/C=C/c4ccc(F)cc4)nc23)C1c1ccc(Cl)cc1` (configuration not stated), the viability at 50 µg/mL was 34.6%. For `N#CC1=C(N)Oc2c(ccc3ccc(/C=C/c4ccc(Cl)cc4)nc23)C1c1ccc(Cl)cc1` (configuration not stated), the viability at 50 µg/mL was 29.6%.
